One may read the IC50 as the concentration needed to halve the response being measured.

Chain of C5aR (P21730 whole entry): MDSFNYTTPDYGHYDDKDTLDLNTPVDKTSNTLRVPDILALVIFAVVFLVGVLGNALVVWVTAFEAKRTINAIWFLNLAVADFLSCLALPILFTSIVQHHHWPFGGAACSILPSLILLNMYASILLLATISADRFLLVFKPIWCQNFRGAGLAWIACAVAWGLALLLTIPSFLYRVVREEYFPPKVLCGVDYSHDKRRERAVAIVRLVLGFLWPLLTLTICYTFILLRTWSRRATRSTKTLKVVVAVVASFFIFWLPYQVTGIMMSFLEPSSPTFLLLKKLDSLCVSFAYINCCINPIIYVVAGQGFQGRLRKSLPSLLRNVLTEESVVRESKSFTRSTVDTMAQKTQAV

The assay addresses C5aR (Homo sapiens (Human), UniProt P21730). The assay can be described thus: Chemotaxis assay using U937 cells (C5aR mediated migration). Format: cell-based. Conditions: read-out: Mig IC50. In outline: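 Migration toward 0.03 nM C5a, mixed with varying compound in the lower chamber (HBSS with 1% FBS), was measured over 1.5 h at 37° C through 5 μm filters. Upper chamber held 100,000 U937 cells treated overnight with 0.5 mM cAMP; migrated cells quantified by counts or CyQuant for IC50, SDF-1α as specificity control.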
In the case of `CCc1cccc(CC)c1-n1nc2c(c1-c1cc(F)c(NC(N)=O)cc1F)CN(Cc1ccc(C(F)(F)F)cc1C(F)(F)F)[C@@H](C)C2` [Example 1.016], the IC50 was no more than 0.005 µM.
On to `CCc1cccc(CC)c1-n1nc2c(c1-c1cc(F)c(NC(N)=O)cc1F)CN(Cc1ccc(C(F)(F)F)cc1Cl)CC2` [Example 1.057], for which the 50% inhibitory concentration (IC50) was no more than 0.005 µM.
For the compound `CCN1CCc2nn(-c3c(C)cccc3OCC(C)C)c(-c3ccc(NC(N)=O)c(F)c3)c2C1` [Example 1.265], the IC50 lay in the range of 0.05 to 0.5 µM.
Regarding `CC(C)COc1ccccc1-n1nc2c(c1-c1cc(F)c(NC(N)=O)cc1F)CN(c1ncc(C(F)(F)F)cc1F)CC2` [Example 1.205], the IC50 was no more than 0.005 µM.
Under `Cc1cccc(OCC(C)C)c1-n1nc2c(c1-c1ccc(NC(N)=O)cc1)CN(C(=O)c1ccc(C(C)(C)C)cc1)CC2` [Example 1.432] stands 0.05 to 0.5 µM.
`Cc1cccc(OCC(C)C)c1-n1nc2c(c1-c1ccc(NC(N)=O)cc1)CN(C(C)c1cccc(C(F)(F)F)c1)CC2` (stereo not drawn) [Example 1.314]: the IC50 fell in the range of 0.005 to 0.05 µM.
On to `Cc1cccc(OCC(C)C)c1-n1nc2c(c1-c1ccc(NC(N)=O)cc1)CN(c1nc(C(F)(F)F)ccc1F)CC2` [Example 1.386], for which the IC50 was in the range of 0.005 to 0.05 µM.
Next, `Cc1cccc(OCC(C)C)c1-n1nc2c(c1-c1ccc(NC(N)=O)cc1)CN(c1cc(C(C)(C)C)ccc1F)CC2` [Example 1.421]: no more than 0.005 µM; `Cc1cccc(C)c1-n1nc2c(c1-c1cc(F)c(NC(N)=O)cc1F)CN(c1ncc(Cl)cc1Cl)CC2` [Example 1.180]: no more than 0.005 µM; `Cc1cccc(OCC(C)C)c1-n1nc2c(c1-c1cc(F)c(NC(N)=O)cc1F)CN(c1nccn3ccnc13)CC2` [Example 1.142]: 0.005 to 0.05 µM.
In the case of `NC(=O)Nc1cc(F)c(-c2c3c(nn2-c2c(Cl)cccc2Cl)CCN(c2ncc(Cl)cc2Cl)C3)cc1F` [Example 1.187], the IC50 was in the range of 0.005 to 0.05 µM.
On to `Cc1cccc(OCC(C)C)c1-n1nc2c(c1-c1ccc(N)cc1)CN(c1ccccc1C(C)C)CC2` [Example 1.480], for which the IC50 was in the range of 0.005 to 0.05 µM.
`CCc1cccc(CC)c1-n1nc2c(c1-c1cc(F)c(NC(=O)CO)cc1F)CN(Cc1ccc(C(F)(F)F)cc1C(F)(F)F)CC2` [Example 1.002]: the concentration for half-maximal inhibition (IC50) was in the range of 0.05 to 0.5 µM.
As for `CCc1cccc(CC)c1-n1nc2c(c1-c1cc(F)c(NC(N)=O)cc1OC)CN(c1ncc(Cl)cc1Cl)CC2` [Example 1.147], the IC50 was no more than 0.005 µM.
Under `Cc1cccc(OCC(C)C)c1-n1nc2c(c1-c1ccc(NC(N)=O)cc1)CN(CC(C)(C)O)CC2` [Example 1.389] stands greater than 0.5 µM; under `CCc1cccc(CC)c1-n1nc2c(c1-c1cc(F)c(NC(N)=O)cc1F)CN(Cc1ccc(Cl)cc1Cl)C(C)(C)C2` [Example 1.024], no more than 0.005 µM.
Consider `CCc1cccc(CC)c1-n1nc2c(c1-c1ccc(NC(N)=O)c(F)c1)CN(C(C)CC)CC2` (stereo not drawn) [Example 1.235], for which the IC50 is 0.005 to 0.05 µM.
Regarding `CCc1cccc(CC)c1-n1nc2c(c1-c1cc(F)c(NC(N)=O)cc1F)CN(C(c1ccccc1)C(C)(C)O)CC2` (stereo not drawn) [Example 1.080], the 50% inhibitory concentration (IC50) is no more than 0.005 µM.
For the compound `Cc1cccc(OCC(C)C)c1-n1nc2c(c1-c1ccc(NC(N)=O)c(F)c1)CN(C(C)CC(C)C)CC2` (stereo not drawn) [Example 1.239], the IC50 was no more than 0.005 µM.
As to `CCc1cccc(CC)c1-n1nc2c(c1-c1cc(F)c(NC(N)=O)cc1F)CN(C(=O)C(C)C)CC2` [Example 1.030], the IC50 fell in the range of 0.005 to 0.05 µM.
As to `CCc1cccc(CC)c1-n1nc2c(c1-c1cc(F)c(NC(N)=O)cc1F)CN(Cc1c(F)cc(C(F)(F)F)cc1C(F)(F)F)CC2` [Example 1.062], the half-maximal inhibitory concentration (IC50) is no more than 0.005 µM.
Regarding `Cc1cccc(OCC(C)C)c1-n1nc2c(c1-c1ccc(NC(N)=O)cc1Cl)CN(c1ncc(C(F)(F)F)cc1F)CC2` [Example 1.269], the IC50 is no more than 0.005 µM.
Regarding `Cc1cccc(OCC(C)C)c1-n1nc2c(c1-c1cc(F)c(NC(N)=O)cc1F)CN(c1ncccc1F)CC2` [Example 1.178], the half-maximal inhibitory concentration (IC50) is no more than 0.005 µM.
For `Cc1ccc(C(C)(C)C)cc1N1CCc2nn(-c3c(C)cccc3CC(C)C)c(-c3ccc(N(C)C(N)=O)cc3)c2C1` [Example 1.400], the half-maximal inhibitory concentration (IC50) is greater than 0.5 µM.
Turning to `CCc1cccc(CC)c1-n1nc2c(c1-c1cc(F)c(NC(N)=O)cc1F)CN(CCCC(F)(F)F)C(C)(C)C2` [Example 1.008], the 50% inhibitory concentration (IC50) is no more than 0.005 µM.
With `Cc1cccc(C)c1-n1nc2c(c1-c1cc(F)c(NC(N)=O)cc1F)CN(c1ncccc1Cl)CC2` [Example 1.127], the IC50 was no more than 0.005 µM.
Under `CC(=O)Nc1cc(F)c(-c2c3c(nn2-c2c(C)cccc2C)CCN(c2ncc(Cl)cc2Cl)C3)cc1F` [Example 1.126] stands 0.05 to 0.5 µM.
As for `CCCC(C)N1CCc2nn(-c3c(C)cccc3OCC(C)C)c(-c3ccc(NC(N)=O)c(F)c3)c2C1` (stereo not drawn) [Example 1.247], the IC50 was no more than 0.005 µM.
Take `COc1cccc(C)c1-n1nc2c(c1-c1ccc(NC(N)=O)c(C)c1)CN(c1cc(C(C)(C)C)ccc1C)CC2` [Example 1.409]: the half-maximal inhibitory concentration (IC50) lay in the range of 0.005 to 0.05 µM.
For `Cc1cccc(OCC(C)C)c1-n1nc2c(c1-c1ccc(NC(N)=O)cc1)CN(c1cc(C(C)(C)O)ccc1F)CC2` [Example 1.363], the half-inhibitory concentration (IC50) lay in the range of 0.05 to 0.5 µM.
Under `CCc1cccc(CC)c1-n1nc2c(c1-c1cc(F)c(NC(N)=O)cc1F)CN(Cc1ccccc1)CC2` [Example 1.051] stands no more than 0.005 µM; under `Cc1cccc(OCC(C)C)c1-n1nc2c(c1-c1ccc(NC(N)=O)cc1)CN(Cc1cc(Cl)ccc1Cl)CC2(C)C` [Example 1.261], greater than 0.5 µM; under `Cc1cccc(OCC(C)C)c1-n1nc2c(c1-c1ccc(NC(N)=O)cc1)CN(S(=O)(=O)c1ccccc1C(F)(F)F)CC2` [Example 1.298], 0.05 to 0.5 µM.
Consider `COc1cc(NC(N)=O)c(F)cc1-c1c2c(nn1-c1c(C)cccc1C)CCN(c1ncc(Cl)cc1Cl)C2` [Example 1.123], for which the IC50 is no more than 0.005 µM.
For `Cc1cccc(C)c1-n1nc2c(c1-c1cc(F)c(NC(N)=O)cc1F)CN(C(CO)c1ccccc1)CC2` (stereo not drawn) [Example 1.087], the IC50 was in the range of 0.05 to 0.5 µM.
Regarding `Cc1cccc(OCC(C)C)c1-n1nc2c(c1-c1ccc(NC(N)=O)c(F)c1)CN(c1ccc(C(F)(F)F)cc1Cl)CC2` [Example 1.241], the half-maximal inhibitory concentration (IC50) was no more than 0.005 µM.
On to `COc1cccc(C)c1-n1nc2c(c1-c1ccc(N(C)C)cc1)CN(c1ccccc1C)CC2` [Example 1.487], for which the half-maximal inhibitory concentration (IC50) is greater than 0.5 µM.
In the case of `Cc1cnc(N2CCc3nn(-c4c(C)cccc4OCC(C)C)c(-c4ccc(NC(N)=O)c(F)c4)c3C2)c(F)c1` [Example 1.224], the concentration for half-maximal inhibition (IC50) was no more than 0.005 µM.
Turning to `Cc1cccc(OCC(C)C)c1-n1nc2c(c1-c1ccc(NC(N)=O)c(F)c1)CN(C(C)C)CC2` [Example 1.264], the IC50 lay within 0.05 to 0.5 µM.
Consider `Cc1cccc(OCC(C)C)c1-n1nc2c(c1-c1ccc(NC(N)=O)cc1)CN(C(=O)C1CCC1)CC2` [Example 1.426], for which the IC50 lay in the range of 0.05 to 0.5 µM.
On to `CCc1cccc(CC)c1-n1nc2c(c1-c1cc(F)c(NC(N)=O)cc1F)CN(C(CC)c1ccccc1)CC2` (stereo not drawn) [Example 1.162], for which the half-maximal inhibitory concentration (IC50) was no more than 0.005 µM.
For `CCc1cccc(CC)c1-n1nc2c(c1-c1cc(F)c(NC(N)=O)cc1F)CN(Cc1cc(F)ccc1F)CC2` [Example 1.046], the IC50 was no more than 0.005 µM.
Under `CCc1cccc(CC)c1-n1nc2c(c1-c1cc(F)c(NC(N)=O)cc1F)CN(Cc1ccc(Cl)cc1C(F)(F)F)C(C)(C)C2` [Example 1.052] stands no more than 0.005 µM; under `COc1cccc(C)c1-n1nc2c(c1-c1ccc(NC(N)=O)cc1)CN(c1ccccc1C(C)(C)C)CC2` [Example 1.456], 0.005 to 0.05 µM.
`CCc1cccc(CC)c1-n1nc2c(c1-c1cc(F)c(NC(N)=O)cc1F)CN(Cc1cc(C(F)(F)F)ccc1C(F)(F)F)CC2` [Example 1.055]: the IC50 was no more than 0.005 µM.
In the case of `Cc1cccc(OCC(C)C)c1-n1nc2c(c1-c1ccc(NC(N)=O)cc1)CN(C1CCCC1C)CC2` (stereo not drawn) [Example 1.397], the concentration for half-maximal inhibition (IC50) is 0.05 to 0.5 µM.
Consider `Cc1cccc(OCC(C)C)c1-n1nc2c(c1-c1ccc(NC(N)=O)cc1)CN(c1ccc(C(F)(F)F)cc1Cl)CC2` [Example 1.375], for which the IC50 was in the range of 0.005 to 0.05 µM.
Regarding `Cc1cccc(OCC(C)C)c1-n1nc2c(c1-c1cc(F)c(NC(N)=O)cc1F)CN(c1ncc(C(F)(F)F)cn1)CC2` [Example 1.164], the IC50 is no more than 0.005 µM.
Next, `CCc1cccc(CC)c1-n1nc2c(c1-c1cc(F)c(NC(N)=O)cc1F)CN(Cc1cnn(CC)c1)CC2` [Example 1.072]: 0.05 to 0.5 µM; `CCc1cccc(CC)c1-n1nc2c(c1-c1ccc(NC(N)=O)cc1)CN(Cc1c(Cl)cccc1C(F)(F)F)CC2` [Example 1.297]: 0.005 to 0.05 µM.
For `Cc1ccc(C(C)C)nc1N1CCc2nn(-c3c(C)cccc3OCC(C)C)c(-c3ccc(NC(N)=O)cc3)c2C1` [Example 1.347], the half-inhibitory concentration (IC50) was no more than 0.005 µM.
On to `CCc1cccc(CC)c1-n1nc2c(c1-c1cc(F)c(NC(N)=O)cc1F)CN(Cc1ccc(C)cc1C)CC2` [Example 1.063], for which the 50% inhibitory concentration (IC50) is no more than 0.005 µM.
Turning to `Cc1cccc(OCC(C)C)c1-n1nc2c(c1-c1ccc(NC(N)=O)cc1)CN(Cc1c(C(F)(F)F)ccc(Cl)c1Cl)CC2` [Example 1.333], the IC50 was no more than 0.005 µM.
On to `Cc1cccc(OCC(C)C)c1-n1nc2c(c1-c1ccc(NC(N)=O)c(F)c1)CN(c1cc(F)cnc1F)CC2` [Example 1.251], for which the IC50 lay in the range of 0.005 to 0.05 µM.
As for `Cc1cc(C(F)(F)F)cnc1N1CCc2nn(-c3c(C)cccc3OCC(C)C)c(-c3ccc(NC(N)=O)cc3)c2C1` [Example 1.340], the half-maximal inhibitory concentration (IC50) lay in the range of 0.005 to 0.05 µM.
Next, `Cc1cccc(OCC(C)C)c1-n1nc2c(c1-c1ccc(N)c(F)c1)CN(c1ncc(C(F)(F)F)cc1F)CC2` [Example 1.294]: 0.005 to 0.05 µM; `Cc1cccc(OCC(C)C)c1-n1nc2c(c1-c1ccc(NC(N)=O)cc1)CN(C(=O)c1ccccc1C(C)C)CC2` [Example 1.434]: 0.05 to 0.5 µM; `CCOc1cccc(C)c1-n1nc2c(c1-c1ccc(NC(N)=O)cc1)CN(c1ccccc1C(C)C)CC2` [Example 1.475]: 0.005 to 0.05 µM.
Under `Cc1cccc(OCC(C)C)c1-n1nc2c(c1-c1ccc(NC(N)=O)cc1)CN(C(=O)OC(C)(C)C)CC2` [Example 1.439] stands 0.005 to 0.05 µM.
Under `Cc1cccc(C)c1-n1nc2c(c1-c1cc(F)c(NC(N)=O)cc1F)CN(c1ccc(Cl)cc1Cl)CC2` [Example 1.119] stands no more than 0.005 µM.

The record behind these values is patent publication US11478460B2, “Diaryl substituted 6,5-fused ring compounds as C5aR inhibitors” (CHEMOCENTRYX, INC., priority 2017, dated 2022).
